These results are taken from ChEMBL document CHEMBL3044913, “Synthesis, in vitro cytotoxicity, and antibacterial studies of new asymmetric bis-1,2,4-triazoles” (Med Chem Res, 2013).

The term IC50 denotes the concentration needed to halve the response being measured. By MIC is commonly meant the smallest concentration in the dilution series that meets the test's criterion for growth inhibition.

The subject of one experiment is HT-29. The experiment can be described thus: Cytotoxicity against Homo sapiens (human) HT-29 cells assessed as inhibition of cell growth after 48 hr by MTT assay. Type of experiment: functional, cell-based. The following applies: HT-29, 48 h.
Experiment [1] in a line: Cytotoxicity against Homo sapiens (human) MDA231 cells assessed as inhibition of cell growth after 48 hr by MTT assay. Type of experiment: functional, cell-based. The following applies: MDA-MB-231, 48 h. On the technique in general: Tetrazolium assays rely on reduction of a dye to a coloured formazan, in cell work by metabolically active cells.
The test system of experiment [2] is Radical scavenging activity. The experiment can be described thus: Antioxidant activity assessed as DPPH radical scavenging activity at 40 ug/ml after 30 min. The experiment is classed as functional.
Experiment [3] has as its system Staphylococcus aureus. The experiment can be described thus: Antibacterial activity against Staphylococcus aureus ATCC 25923 assessed as diameter of growth inhibition zone at 100 ug/ml after 24 hr by cup-plate method. The experiment is classed as functional. The settings on record: ATCC 25923, 24 h, read-out: DIZ.
The test system of experiment [4] is Bacillus subtilis. The experiment is described as follows: Antibacterial activity against Bacillus subtilis ATCC 6633 assessed as growth inhibition after 24 hr by two-fold serial dilution method. The experiment is classed as functional. The following applies: ATCC 6633, 24 h.
Experiment [5] deals with Bacillus subtilis. The experiment is described as follows: Antibacterial activity against Bacillus subtilis ATCC 6633 assessed as diameter of growth inhibition zone at 100 ug/ml after 24 hr by cup plate method. Type of experiment: functional. The following applies: ATCC 6633, 24 h, read-out: DIZ.
For experiment [6], the system named is Pseudomonas aeruginosa. The experiment can be described thus: Antibacterial activity against Pseudomonas aeruginosa ATCC 27853 assessed as diameter of growth inhibition zone at 100 ug/ml after 24 hr by cup-plate method. Type of experiment: functional. The settings on record: ATCC 27853, 24 h, read-out: DIZ.
Experiment [7] concerns Staphylococcus aureus. The experiment can be described thus: Antibacterial activity against Staphylococcus aureus ATCC 25923 assessed as growth inhibition after 24 hr by two-fold serial dilution method. The settings on record: ATCC 25923, 24 h. The experiment is classed as functional.
Experiment [8] relates to Pseudomonas aeruginosa. The experiment is described as follows: Antibacterial activity against Pseudomonas aeruginosa ATCC 27853 assessed as growth inhibition after 24 hr by two-fold serial dilution method. The experiment is classed as functional. The settings on record: ATCC 27853, 24 h.
Experiment [9] relates to Escherichia coli. The experiment can be described thus: Antibacterial activity against Escherichia coli ATCC 25922 assessed as diameter of growth inhibition zone at 100 ug/ml after 24 hr by cup-plate method. The experiment is classed as functional. The settings on record: ATCC 25922, 24 h, read-out: DIZ.
Experiment [10] deals with Escherichia coli. The experiment can be described thus: Antibacterial activity against Escherichia coli ATCC 25922 assessed as growth inhibition after 24 hr by two-fold serial dilution method. Type of experiment: functional. The settings on record: ATCC 25922, 24 h.

≈ marks a conversion by molar mass, not a printed value. Where only a bound is given, the exact number is not on record here.

Consider `O=c1[nH]cc(F)c(=O)[nH]1` [FLUOROURACIL], for which the IC50 with HT-29 is 3.24 µM; in [1] it was 2.72 µM.
For the molecule `O=C1O[C@H]([C@@H](O)CO)C(O)=C1O`, the Activity in experiment [2] was 94%.
As for `COc1ccc(-n2c(S)nnc2CSc2nnc(-c3ccccc3)n2-c2ccccc2)cc1`, the zone of inhibition at 100 µg/mL in the experiment with Staphylococcus aureus [3], in the experiment on Bacillus subtilis [5], in the experiment on Pseudomonas aeruginosa [6] and in the experiment on Escherichia coli [9] was 21 mm throughout. In addition, the MIC with Bacillus subtilis [4] stood at 50 µg/mL (≈ 106 µM); with Staphylococcus aureus [7] it was 25 µg/mL (≈ 52.9 µM); in the experiment with Pseudomonas aeruginosa [8], 100 µg/mL (≈ 212 µM); with Escherichia coli [10], 50 µg/mL (≈ 106 µM). The IC50 with HT-29 was 27.7 µM; in [1], 29.2 µM. Further, in experiment [2], the Activity amounted to 63%.
On to `Fc1ccc(-n2c(S)nnc2Sc2nnc(-c3ccccc3)n2-c2ccccc2)cc1`, for which the zone of inhibition at 100 µg/mL in the experiment on Staphylococcus aureus [3], in the experiment with Bacillus subtilis [5], in the experiment on Pseudomonas aeruginosa [6] and with Escherichia coli [9] was 16 mm throughout. Also, the MIC in the experiment on Bacillus subtilis [4] stood at 25 µg/mL (≈ 56 µM); with Staphylococcus aureus [7] it was 25 µg/mL (≈ 56 µM); in the experiment with Pseudomonas aeruginosa [8] it was 50 µg/mL (≈ 112 µM); in the experiment with Escherichia coli [10], 50 µg/mL (≈ 112 µM). Besides, the IC50 with HT-29 is 32.8 µM; in [1] it was 29.7 µM. In experiment [2], the Activity turned out to be 60%.
As for `Sc1nnc(CSc2nnc(-c3ccccc3)n2-c2ccccc2)n1-c1ccc(Cl)cc1`, the zone of inhibition at 100 µg/mL in the experiment on Staphylococcus aureus [3], in the experiment with Bacillus subtilis [5], with Pseudomonas aeruginosa [6] and with Escherichia coli [9] was 16 mm each time. Also, the minimum inhibitory concentration (MIC) turned out to be 25 µg/mL (≈ 52.4 µM) in the experiment with Bacillus subtilis [4], 50 µg/mL (≈ 105 µM) with Staphylococcus aureus [7], 100 µg/mL (≈ 210 µM) in the experiment on Pseudomonas aeruginosa [8] and 50 µg/mL (≈ 105 µM) with Escherichia coli [10]. Besides, the half-inhibitory concentration (IC50) in the experiment on HT-29 was 36.6 µM; in experiment [1], 50.3 µM. The Activity in [2] was 65%.
As to `Sc1nnc(Sc2nnc(-c3ccccc3)n2-c2ccccc2)n1-c1ccc(Cl)cc1`, the zone of inhibition at 100 µg/mL in the experiment on Staphylococcus aureus [3], in the experiment with Bacillus subtilis [5], in the experiment on Pseudomonas aeruginosa [6] and in the experiment on Escherichia coli [9] was 16 mm each time. For the same molecule, the minimum inhibitory concentration (MIC) in the experiment on Bacillus subtilis [4] turned out to be 25 µg/mL (≈ 54 µM); with Staphylococcus aureus [7], 12.5 µg/mL (≈ 27 µM); in the experiment on Pseudomonas aeruginosa [8], 25 µg/mL (≈ 54 µM); in the experiment on Escherichia coli [10] it was 12.5 µg/mL (≈ 27 µM). Besides, the IC50 came out at 38.4 µM in the experiment on HT-29 and 49.7 µM in experiment [1]. Besides, the Activity in experiment [2] turned out to be 64%.
On to `CC(C)n1c(S)nnc1Sc1nnc(-c2ccccc2)n1-c1ccccc1`, for which the zone of inhibition at 100 µg/mL in the experiment on Staphylococcus aureus [3], in the experiment on Bacillus subtilis [5], with Pseudomonas aeruginosa [6] and in the experiment with Escherichia coli [9] was 5 mm each time. The minimum inhibitory concentration (MIC) with Bacillus subtilis [4], in the experiment on Staphylococcus aureus [7], in the experiment on Pseudomonas aeruginosa [8] and with Escherichia coli [10] was 100 µg/mL (≈ 253 µM) throughout. The Activity in [2] came to 39%.
On to `CCOc1ccc(-n2c(S)nnc2CSc2nnc(-c3ccccc3)n2-c2ccccc2)cc1`, for which the zone of inhibition at 100 µg/mL in the experiment on Staphylococcus aureus [3], in the experiment with Bacillus subtilis [5], in the experiment with Pseudomonas aeruginosa [6] and in the experiment on Escherichia coli [9] was 5 mm each time. Moreover, the MIC in the experiment with Bacillus subtilis [4], in the experiment on Staphylococcus aureus [7], in the experiment on Pseudomonas aeruginosa [8] and in the experiment on Escherichia coli [10] was 100 µg/mL (≈ 205 µM) throughout. For the same molecule, the Activity in [2] was 34%.
As to `Sc1nnc(CSc2nnc(-c3ccccc3)n2-c2ccccc2)n1-c1ccccc1`, the zone of inhibition at 100 µg/mL in the experiment with Staphylococcus aureus [3], with Bacillus subtilis [5], with Pseudomonas aeruginosa [6] and in the experiment on Escherichia coli [9] was 16 mm each time. Moreover, the minimum inhibitory concentration (MIC) with Bacillus subtilis [4] is 12.5 µg/mL (≈ 28.2 µM); with Staphylococcus aureus [7] it was 12.5 µg/mL (≈ 28.2 µM); with Pseudomonas aeruginosa [8] it was 50 µg/mL (≈ 113 µM); with Escherichia coli [10], 25 µg/mL (≈ 56.5 µM). The results for the IC50 (in the experiment on HT-29; in experiment [1]) were 5.49 µM and 8.57 µM, respectively. The Activity in experiment [2] was determined as 85%.
As for `CC1(C)S[C@@H]2[C@H](NC(=O)[C@H](N)c3ccccc3)C(=O)N2[C@H]1C(=O)O` [AMPICILLIN], the zone of inhibition at 100 µg/mL in the experiment with Staphylococcus aureus [3], in the experiment on Bacillus subtilis [5], with Pseudomonas aeruginosa [6] and in the experiment with Escherichia coli [9] was 28 mm throughout. The minimal inhibitory concentration (MIC) with Bacillus subtilis [4], with Staphylococcus aureus [7], in the experiment on Pseudomonas aeruginosa [8] and in the experiment on Escherichia coli [10] was less than 6.25 µg/mL each time.
Turning to `COc1ccc(-n2c(S)nnc2Sc2nnc(-c3ccccc3)n2-c2ccccc2)cc1`, the zone of inhibition at 100 µg/mL in the experiment on Staphylococcus aureus [3], with Bacillus subtilis [5], in the experiment on Pseudomonas aeruginosa [6] and in the experiment with Escherichia coli [9] was 5 mm each time. Further, the minimal inhibitory concentration (MIC) in the experiment on Bacillus subtilis [4], in the experiment with Staphylococcus aureus [7], in the experiment on Pseudomonas aeruginosa [8] and in the experiment with Escherichia coli [10] was 100 µg/mL (≈ 218 µM) each time. In addition, the Activity in experiment [2] is 28%.
`CCOc1ccc(-n2c(S)nnc2Sc2nnc(-c3ccccc3)n2-c2ccccc2)cc1`: the zone of inhibition at 100 µg/mL in the experiment with Staphylococcus aureus [3], with Bacillus subtilis [5], in the experiment with Pseudomonas aeruginosa [6] and in the experiment with Escherichia coli [9] was 5 mm in each case. Moreover, the MIC in the experiment on Bacillus subtilis [4], in the experiment on Staphylococcus aureus [7], in the experiment on Pseudomonas aeruginosa [8] and in the experiment on Escherichia coli [10] was 100 µg/mL (≈ 212 µM) in each case. The IC50 came to 46.8 µM in the experiment on HT-29 and 43.9 µM in experiment [1]. Moreover, the Activity in [2] was determined as 59%.
As to `Sc1nnc(Sc2nnc(-c3ccccc3)n2-c2ccccc2)n1-c1ccccc1`, the zone of inhibition at 100 µg/mL in the experiment with Staphylococcus aureus [3], in the experiment with Bacillus subtilis [5], in the experiment on Pseudomonas aeruginosa [6] and in the experiment with Escherichia coli [9] was 5 mm throughout. In addition, the minimum inhibitory concentration (MIC) in the experiment with Bacillus subtilis [4], in the experiment on Staphylococcus aureus [7], with Pseudomonas aeruginosa [8] and with Escherichia coli [10] was 100 µg/mL (≈ 233 µM) each time. Also, the values for the half-inhibitory concentration (IC50) (in the experiment on HT-29; in experiment [1]) were 28.3 µM and 34.6 µM, respectively. In [2], the Activity was found to be 63%.
For `CC(C)n1c(S)nnc1CSc1nnc(-c2ccccc2)n1-c1ccccc1`, the zone of inhibition at 100 µg/mL in the experiment with Staphylococcus aureus [3], in the experiment with Bacillus subtilis [5], with Pseudomonas aeruginosa [6] and in the experiment on Escherichia coli [9] was 5 mm in each case. In addition, the MIC with Bacillus subtilis [4], in the experiment on Staphylococcus aureus [7], with Pseudomonas aeruginosa [8] and in the experiment on Escherichia coli [10] was 100 µg/mL (≈ 245 µM) throughout. Moreover, the Activity in experiment [2] came out at 42%.
In the case of `Fc1ccc(-n2c(S)nnc2CSc2nnc(-c3ccccc3)n2-c2ccccc2)cc1`, the zone of inhibition at 100 µg/mL in the experiment with Staphylococcus aureus [3], in the experiment with Bacillus subtilis [5], in the experiment on Pseudomonas aeruginosa [6] and in the experiment on Escherichia coli [9] was 21 mm in each case. For the same molecule, the minimum inhibitory concentration (MIC) in the experiment on Bacillus subtilis [4] came to 12.5 µg/mL (≈ 27.1 µM); in the experiment on Staphylococcus aureus [7], 25 µg/mL (≈ 54.3 µM); in the experiment with Pseudomonas aeruginosa [8], 12.5 µg/mL (≈ 27.1 µM); with Escherichia coli [10], 25 µg/mL (≈ 54.3 µM). The IC50 in the experiment with HT-29 was 16.7 µM; in experiment [1], 26.8 µM. In experiment [2], the Activity came to 72%.
